The values below come from patent publication USRE45173E1, “Inhibitors of CYP 17” (Novartis AG, priority 2009, dated 2014).

SMILES strings stand for the structures. Counter-ions that a name gives are not always drawn.

The first assay deals with recombinant human CYP17 enzyme (Homo sapiens (Human), UniProt P05093). As to the kind of experiment: Cytochrome P450, 17-20 lyase (CYP17-lyase) assay, tritiated acetic acid release from 17-α-hydroxy pregnenolone [21-3H]. The note with it: human CYP17, substrate 0.25 μM; read-out: Lyase IC 50 nM Human/Rat (Human). Type of assay: biochemical. The source says: Assay method was adopted from a published protocol with some modifications to suit our requirements (Dmitry N Grigoryev et al, Analytical Biochemistry, (1999) 267, 319-330). […] Chloroform extraction removes the radioactive steroids and acetic acid is taken into aqueous layer. The tritiated acetic acid released in the assay thus extracted is quantified to determine the enzyme activity. […] The purified cell membrane preparations were used as the source for Human CYP17 enzyme. […] O, Nijar, et al., J Med Chem, (1998) 41, 902-912). […] Km for this substrate was determined by monitoring the tritiated acetic acid release as a function of substrate concentration. […] For the Km determination, the data was fit to a hyperbolic equation (Graphpad Prism® software IV). […] (Dmitry N. Grigoryev et al, Analytical Biochemistry (1999) 267, 319-330) […] NADPH is used at a final concentration of 4.2 mM. Total reaction volume was made up to 50 μL with 50 mM Phosphate buffer pH 7.5. The reaction mixture was incubated at room temperature for 90 minutes with gentle shaking. The reaction was stopped by the addition of 100 μL of buffer. 500 μL of 5% freshly prepared activated charcoal was added to the solution and mixed well by vortexing. The samples were centrifuged at 17568×g for 5 minutes. (14000 rpm). The supernatant was carefully transferred to fresh tube and 1.3 mL of scintillation fluid was added, mixed by vortexing. The radioactivity was measured in a 1450 MicroBeta TriLux™ scintillation counter from Wallac-Perkin Elmer®, USA. The measurements were carried out in 2.0 mL Eppendorforf™ tubes. […] The amount of tritiated acetic acid released is proportional to the lyase activity. Percent lyase activity in presence of inhibitor was calculated using the formula given below. […] Enzyme reaction in presence of inhibitor. • Positive control: […] For IC50 determination, the % inhibition was plotted as a function of inhibitor concentration. The data was fitted to sigmoidal equation using Graphpad Prism® software IV to generate IC50 values.
Sequence of recombinant human CYP17 enzyme (P05093 whole entry): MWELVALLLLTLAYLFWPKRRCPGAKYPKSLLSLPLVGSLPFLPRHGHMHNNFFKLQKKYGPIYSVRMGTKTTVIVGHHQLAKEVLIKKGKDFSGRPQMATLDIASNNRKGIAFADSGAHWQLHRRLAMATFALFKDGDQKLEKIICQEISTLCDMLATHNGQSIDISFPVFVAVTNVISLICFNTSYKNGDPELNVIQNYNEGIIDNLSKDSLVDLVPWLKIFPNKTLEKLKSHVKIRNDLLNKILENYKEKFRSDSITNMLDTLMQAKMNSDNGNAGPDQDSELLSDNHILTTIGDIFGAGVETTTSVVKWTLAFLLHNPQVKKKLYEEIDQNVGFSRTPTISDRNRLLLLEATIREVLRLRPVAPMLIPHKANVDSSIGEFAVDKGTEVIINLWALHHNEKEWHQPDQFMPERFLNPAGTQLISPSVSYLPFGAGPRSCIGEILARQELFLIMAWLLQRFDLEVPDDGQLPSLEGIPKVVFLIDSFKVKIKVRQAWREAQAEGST
`Cc1ccncc1N1CCN(c2ccc(C(F)(F)F)s2)C1=O` [Example 155A, 1-(4-Methylpyridin-3-yl)-3-(5-(trifluoromethyl)thiophen-2-yl)-imidazolidin-2-one]: the IC50 was found to be 2.7 nM.
Regarding `Cc1ccncc1N1CCN(c2cccc3ccccc23)C1=O` [Example 133A, 1-(4-Methyl-pyridin-3-yl)-3-naphthalen-1-O-imidazolidin-2-one], the IC50 is 1970 nM.
On the same count and under the same terms, next, `Cc1ccncc1N1CCN(c2ccc3cccnc3c2)C1=O` [Example 162A, 1-(4-methylpyridin-3-yl)-3-(quinolin-7-yl)imidazolidin-2-one]: 317 nM.
For the compound `COc1cc(N2CCN(c3cnccc3C)C2=O)ccc1F` [Example 74A, 1-(4-Fluoro-3-methoxy-phenyl)-3-(4-methyl-pyridin-3-yl)-imidazolidin-2-one], the IC50 amounted to 76 nM.
Regarding `Cc1ccncc1N1CCN(c2ccc3nccnc3c2)C1=O` [Example 77A, 1-(4-Methyl-pyridin-3-yl)-3-quinoxalin-6-yl-imidazolidin-2-one], the IC50 turned out to be 195 nM.
For the compound `Cc1ccncc1N1CCN(c2ccc3c(c2)CCC3)C1=O` [Example 138A, 1-Indan-5-yl-3-(4-methyl-pyridin-3-yl)-imidazolidin-2-one], the IC50 is 13 nM.
Consider `Cc1ccncc1N1CCN(c2ccc3c(C(F)(F)F)n[nH]c3c2)C1=O` [Example 160A, 1-(4-methylpyridin-3-yl)-3-(3-(trifluoromethyl)-1H-indazol-6-yl)imidazolidin-2-one], for which the IC50 is 34 nM.
As to `O=C1N(c2ccc3ncsc3c2)CCN1c1cnccc1CNC1CC1` [Example 178A, 1-Benzothiazol-6-yl-3-(4-cyclopropylaminomethyl-pyridin-3-yl)-imidazolidin-2-one], the IC50 was determined as 19 nM.
Consider `Cc1ccncc1N1CCN(c2ccnc(N)c2)C1=O` [Example 76A], for which the IC50 stood at 192 nM.
For the compound `Cc1ccncc1N1CCN(c2ccc3c(c2)OCCO3)C1=O` [Example 49A, 1-(2,3-Dihydro-benzo[1,4]dioxin-6-yl)-3-(4-methyl-pyridin-3-yl)-imidazolidin-2-one], the IC50 is 30 nM.
As to `O=C1N(c2ccc3ncsc3c2)CCN1c1cnccc1CO` [Example 126A, 1-Benzothiazol-6-yl-3-(4-hydroxymethyl-pyridin-3-yl)-imidazolidin-2-one], the IC50 came to 25 nM.
As for `Cc1ccncc1N1CCN(c2ccc3c(=O)[nH][nH]c3c2)C1=O` [Example 135A, 6-[3-(4-Methyl-pyridin-3-yl)-2-oxo-imidazolidin-1-yl]-1,2-dihydro-indazol-3-one], the IC50 turned out to be 15.9 nM.
Still for that read-out and setting: next, `O=C1N(c2ccc3ncsc3c2)CCN1c1cnccc1C(F)F` [Example 125A, 1-Benzothiazol-6-yl-3-(4-difluoromethyl-pyridin-3-yl)-imidazolidin-2-one]: 17 nM; `Nc1ccncc1N1CCN(c2ccc3ncsc3c2)C1=O` [Example 152A, 1-(4-Amino-pyridin-3-yl)-3-benzothiazol-6-yl-imidazolidin-2-one Hydrochloride Salt]: 7 nM; `O=C1N(c2ccc3ncsc3c2)CCN1c1cnccc1CN1CCOCC1` [Example 177A, 1-benzothiazol-6-yl-3-(4-morpholin-4-ylmethyl-pyridin-3-yl)-imidazolidin-2-one]: 32 nM.

The assay is the same for the next values; noted with them: human CYP17, substrate 0.25 μM; read-out: Lyase IC 50 Human/Rat (Human).
`O=C1N(c2ccc3ncsc3c2)CCN1c1cncc2nccn12` [Example 186A, 1-Benzothiazol-6-yl-3-imidazo[1,2-a]pyrazin-5-yl-imidazolidin-2-one]: the IC50 is more than 10000 nM.
As to `CC(=O)Nc1cc(N2CCN(c3cnccc3C)C2=O)ccn1` [Example 96A], the IC50 was more than 10000 nM.

Staying with this assay, now noted: read-out: Lyase IC 50 nM Human/Rat (Human).
Take `Cc1c(N2CCN(c3ccc4ncsc4c3)C2=O)cncc1C(F)(F)F` [Example 153A, 1-(benzo[d]thiazol-6-yl)-3-(4-methyl-5-(trifluoromethyl)pyridin-3-yl)imidazolidin-2-one, Trifluoroacetic Acid Salt]: the IC50 was 280 nM.
